Source: patent US9321764B2, “Dihydro-pyrrolopyridinone inhibitors” (AbbVie Inc., priority 2013, dated 2016)
pEC50, pKi: −log10 of the molar value.

Columns and labels:
BRD4 (BDI_K57-E168) = biological target: T1, BRD4 (BDI_K57-E168) (Homo sapiens, UniProt O60885); assay: TR-FRET bromodomain binding assay, first bromodomain of BRD4; conditions: His-tagged BD1, 100 nM Alexa647 probe; TR-FRET protocol A-E given per row
T1 construct: BD1: amino acids K57-E168; made in house
Procedure, shortened: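 His-tagged BRD4 BD1 (K57-E168), 8 nM, with 1 nM Eu-anti-His antibody and 100 nM Alexa647-labelled BET-inhibitor probe in pH 6.0 phosphate buffer, 2% DMSO. TR-FRET read after 1 h at room temperature. IC50 from 4-parameter fit, converted to Ki using probe Kd and concentration.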

BRD4 (BDII_E352-M457) = biological target: T2, BRD4 (BDII_E352-M457) (Homo sapiens, UniProt O60885); assay: TR-FRET bromodomain binding assay, second bromodomain of BRD4; conditions: His-tagged BD2, 30 nM Alexa647 probe; TR-FRET protocol A-E given per row
T2 construct: proliferation; Protocol; made in house
Procedure, shortened: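 His-tagged BRD4 BD2 ([…]) competed against an Alexa647-labelled BET-inhibitor probe in TR-FRET. Buffer was 20 mM sodium phosphate pH 6.0, 50 mM NaCl, 1 mM EDTA, 0.01% Triton X-100, 1 mM DTT, with method D DMSO series of 2.5 mM–800 nM (stock range). IC50 from 4-parameter fit, Ki from probe Kd and concentration.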

[1] = system: breast cancer cell line MX-1; assay: MX-1 cell line proliferation assay; type: cell-based; conditions: Homo sapiens, MX1, 72 h, MX-1 cells, 3-day proliferation assay, Cell Titer Glo; read-out: Cellular proliferation EC50
Procedure, shortened: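 Cells seeded at 5000/well in RPMI 1640 with 10% FBS, allowed to adhere overnight at 37 °C, then exposed to compound at final 0.0001–3 μM for 3 days. Viability read by Cell Titer Glo luminescence, normalized to DMSO controls; EC50 from sigmoidal curve fit.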

Structure (SMILES) | pKi (BRD4 (BDI_K57-E168)) | pKi (BRD4 (BDII_E352-M457)) | pEC50 [1]
Cn1cc(-c2cc(CNS(=O)(=O)Cc3ccc(C(F)(F)F)cc3)ccc2Oc2ccc(F)cc2F)c2cc[nH]c(=O)c21 [Example 133, N-[4-(2,4-difluorophenoxy)-3-(1-methyl-7-oxo-6,7-dihydro-1H-pyrrolo[2,3-c]pyridin-3-yl)benzyl]-1-[4-(trifluoromethyl)phenyl]methanesulfonamide] | 7.31 | 5.57 | 5.77
Cn1cc(-c2cc(CNS(=O)(=O)Cc3ccc(C#N)cc3)ccc2Oc2ccc(F)cc2F)c2cc[nH]c(=O)c21 [Example 134, 1-(4-cyanophenyl)-N-[4-(2,4-difluorophenoxy)-3-(1-methyl-7-oxo-6,7-dihydro-1H-pyrrolo[2,3-c]pyridin-3-yl)benzyl]methanesulfonamide] | 6.99 | 6.29 | 6.34
Cn1cc(-c2cc(CNS(=O)(=O)CC(F)(F)F)ccc2Oc2ccc(F)cc2F)c2cc[nH]c(=O)c21 [Example 135, N-[4-(2,4-difluorophenoxy)-3-(1-methyl-7-oxo-6,7-dihydro-1H-pyrrolo[2,3-c]pyridin-3-yl)benzyl]-2,2,2-trifluoroethanesulfonamide] | 7.57 | 6.96 | 6.41
Cn1cc(-c2cc(CNS(=O)(=O)C3CCCC3)ccc2Oc2ccc(F)cc2F)c2cc[nH]c(=O)c21 [Example 137, N-[4-(2,4-difluorophenoxy)-3-(1-methyl-7-oxo-6,7-dihydro-1H-pyrrolo[2,3-c]pyridin-3-yl)benzyl]cyclopentanesulfonamide] | 6.97 | 6.43 | 6.06
Cc1oncc1S(=O)(=O)NCc1ccc(Oc2ccc(F)cc2F)c(-c2cn(C)c3c(=O)[nH]ccc23)c1 [Example 139, N-[4-(2,4-difluorophenoxy)-3-(1-methyl-7-oxo-6,7-dihydro-1H-pyrrolo[2,3-c]pyridin-3-yl)benzyl]-5-methyl-1,2-oxazole-4-sulfonamide] | 6.89 | 6.28 | < 5.52
Cc1noc(C)c1S(=O)(=O)NCc1ccc(Oc2ccc(F)cc2F)c(-c2cn(C)c3c(=O)[nH]ccc23)c1 [Example 140, N-[4-(2,4-difluorophenoxy)-3-(1-methyl-7-oxo-6,7-dihydro-1H-pyrrolo[2,3-c]pyridin-3-yl)benzyl]-3,5-dimethyl-1,2-oxazole-4-sulfonamide] | 6.31 | 6.09 | 5.74
Cn1cc(-c2cc(CNS(=O)(=O)c3ccccc3)ccc2Oc2ccc(F)cc2F)c2cc[nH]c(=O)c21 [Example 141, N-[4-(2,4-difluorophenoxy)-3-(1-methyl-7-oxo-6,7-dihydro-1H-pyrrolo[2,3-c]pyridin-3-yl)benzyl]benzenesulfonamide] | 7.19 | 6.31 | 6.01
Cn1cc(-c2cc(S(=O)(=O)N3CCCC3)ccc2O[C@H]2CC[C@H](N(C)C)CC2)c2cc[nH]c(=O)c21 [Example 144, 3-[2-{[trans-4-(dimethylamino)cyclohexyl]oxy}-5-(pyrrolidin-1-ylsulfonyl)phenyl]-1-methyl-1,6-dihydro-7H-pyrrolo[2,3-c]pyridin-7-one] | 8.09 | 6.97 | 7.14
Cn1cc(-c2cc(NC(=O)c3cc(Cl)ccc3Cl)ccc2Oc2ccc(F)cc2F)c2cc[nH]c(=O)c21 [Example 148, 2,5-dichloro-N-[4-(2,4-difluorophenoxy)-3-(1-methyl-7-oxo-6,7-dihydro-1H-pyrrolo[2,3-c]pyridin-3-yl)phenyl]benzamide] | 7.19 | 6.82 | 6.77
Cc1cnc(C(=O)Nc2ccc(Oc3ccc(F)cc3F)c(-c3cn(C)c4c(=O)[nH]ccc34)c2)cn1 [Example 151, N-[4-(2,4-difluorophenoxy)-3-(1-methyl-7-oxo-6,7-dihydro-1H-pyrrolo[2,3-c]pyridin-3-yl)phenyl]-5-methylpyrazine-2-carboxamide] | 7.79 | 7.49 | 6.70
Cn1cc(-c2cc(NC(=O)Cc3cccc(Oc4ccccc4)c3)ccc2Oc2ccc(F)cc2F)c2cc[nH]c(=O)c21 [Example 154, N-[4-(2,4-difluorophenoxy)-3-(1-methyl-7-oxo-6,7-dihydro-1H-pyrrolo[2,3-c]pyridin-3-yl)phenyl]-2-(3-phenoxyphenyl)acetamide] | 5.75 | 6.08 | 5.80
CC(=O)Nc1ccc(C(=O)Nc2ccc(Oc3ccc(F)cc3F)c(-c3cn(C)c4c(=O)[nH]ccc34)c2)cc1 [Example 155, 4-(acetylamino)-N-[4-(2,4-difluorophenoxy)-3-(1-methyl-7-oxo-6,7-dihydro-1H-pyrrolo[2,3-c]pyridin-3-yl)phenyl]benzamide] | 7.56 | 6.79 | 6.51
Cn1cc(-c2cc(NCc3ccc(C#N)cc3)ccc2Oc2ccc(F)cc2F)c2cc[nH]c(=O)c21 [Example 167, 4-({[4-(2,4-difluorophenoxy)-3-(1-methyl-7-oxo-6,7-dihydro-1H-pyrrolo[2,3-c]pyridin-3-yl)phenyl]amino}methyl)benzonitrile] | 7.48 | 6.81 | 6.47
Cc1cccnc1CNc1ccc(Oc2ccc(F)cc2F)c(-c2cn(C)c3c(=O)[nH]ccc23)c1 [Example 169, 3-[2-(2,4-difluorophenoxy)-5-{[(3-methylpyridin-2-yl)methyl]amino}phenyl]-1-methyl-1,6-dihydro-7H-pyrrolo[2,3-c]pyridin-7-one] | 7.58 | 6.97 | 6.88
Cn1cc(-c2cc(NCc3ccc(OCc4ccccc4)cc3)ccc2Oc2ccc(F)cc2F)c2cc[nH]c(=O)c21 [Example 170, 3-[5-{[4-(benzyloxy)benzyl]amino}-2-(2,4-difluorophenoxy)phenyl]-1-methyl-1,6-dihydro-7H-pyrrolo[2,3-c]pyridin-7-one] | 6.67 | 5.96 | 5.99
Cc1nn(-c2ccccc2)c(Cl)c1CNc1ccc(Oc2ccc(F)cc2F)c(-c2cn(C)c3c(=O)[nH]ccc23)c1 [Example 171, 3-[5-{[(5-chloro-3-methyl-1-phenyl-1H-pyrazol-4-yl)methyl]amino}-2-(2,4-difluorophenoxy)phenyl]-1-methyl-1,6-dihydro-7H-pyrrolo[2,3-c]pyridin-7-one] | 6.75 | 6.42 | 6.70
Cn1cc(-c2cc(NCc3cn4c(n3)CCC4)ccc2Oc2ccc(F)cc2F)c2cc[nH]c(=O)c21 [Example 176, 3-{2-(2,4-difluorophenoxy)-5-[(6,7-dihydro-5H-pyrrolo[1,2-a]imidazol-2-ylmethyl)amino]phenyl}-1-methyl-1,6-dihydro-7H-pyrrolo[2,3-c]pyridin-7-one] | 7.37 | 7.00 | 6.54
COc1cccc(CNc2ccc(Oc3ccc(F)cc3F)c(-c3cn(C)c4c(=O)[nH]ccc34)c2)c1OCc1ccccc1 [Example 177, 3-[5-{[2-(benzyloxy)-3-methoxybenzyl]amino}-2-(2,4-difluorophenoxy)phenyl]-1-methyl-1,6-dihydro-7H-pyrrolo[2,3-c]pyridin-7-one] | 6.88 | 6.61 | < 5.52
Cn1cc(-c2cc(NCc3ccccc3C#N)ccc2Oc2ccc(F)cc2F)c2cc[nH]c(=O)c21 [Example 178, 2-({[4-(2,4-difluorophenoxy)-3-(1-methyl-7-oxo-6,7-dihydro-1H-pyrrolo[2,3-c]pyridin-3-yl)phenyl]amino}methyl)benzonitrile] | 7.51 | 6.62 | 6.63
Cn1cc(-c2cc(NS(=O)(=O)Cc3ccccc3)ccc2Oc2ccc(F)cc2F)c2cc[nH]c(=O)c21 [Example 180, N-[4-(2,4-difluorophenoxy)-3-(1-methyl-7-oxo-6,7-dihydro-1H-pyrrolo[2,3-c]pyridin-3-yl)phenyl]-1-phenylmethanesulfonamide] | 7.46 | 7.23 | < 6.00
Cn1cc(-c2cc(NS(=O)(=O)Cc3cc(F)ccc3Cl)ccc2Oc2ccc(F)cc2F)c2cc[nH]c(=O)c21 [Example 181, 1-(2-chloro-5-fluorophenyl)-N-[4-(2,4-difluorophenoxy)-3-(1-methyl-7-oxo-6,7-dihydro-1H-pyrrolo[2,3-c]pyridin-3-yl)phenyl]methanesulfonamide] | 7.18 | 6.89 | < 6.00
CCS(=O)(=O)Nc1ccc(Oc2ccc(F)cc2F)c(-c2cn(C)c3c(=O)[nH]c(C4CCNCC4)cc23)c1 [Example 183, N-{4-(2,4-difluorophenoxy)-3-[1-methyl-7-oxo-5-(piperidin-4-yl)-6,7-dihydro-1H-pyrrolo[2,3-c]pyridin-3-yl]phenyl}ethanesulfonamide] | 8.58 | 7.87 | 6.45
CCS(=O)(=O)Nc1cnc(Oc2ccc(F)cc2F)c(-c2cn(C)c3c(=O)[nH]ccc23)c1 [Example 184, N-[6-(2,4-difluorophenoxy)-5-(1-methyl-7-oxo-6,7-dihydro-1H-pyrrolo[2,3-c]pyridin-3-yl)pyridin-3-yl]ethanesulfonamide] | 8.27 | 8.33 | 6.51
